Measurements from patent US6498243B1, “Epimorphin antagonist and process for producing it” (Sumitomo Electric Industries, Ltd., priority 1996, dated 2002).

Experiments:
Assay type in all cases: cell-based
[1] = system: morphogenetic action of epimorphin on a pulmonary primordium; test: Inhibitory action on morphogenesis of bronchus, organ culture of pulmonary primordium; settings: 0.35 mg/ml in DH medium; ICR mouse fetal pulmonary primordium (12 days of gestation); 3 days of culture; 5% CO2 at 37° C.
Protocol: A pulmonary primordium was removed from the fetus of the ICR pregnant mouse (Nippon Charles River, 12 days of gestation) under a stereoscopic microscope. The pulmonary primordium taken was placed on Nuclepore membrane filter (SN 110419) floated on a culture medium (DH medium, or 0.35 mg/ml polypeptide A-containing DH medium). Organ culture was performed in 5% CO2 at 37° C. to investigate the effect of polypeptide A on the morphogenesis of the bronchus. […] This manner of inhibition of morphogenesis was exactly the same as in treatment with MC-1, i.e., antibodies inhibiting the function of epimorphin.

[2] = system: hair follicle morphogenetic action of epimorphin on a maxillary skin; test: Inhibitory action on morphogenesis of maxillary skin (hair follicle), organ culture; settings: 0.35 mg/ml in DH medium; ICR mouse fetal maxillary skin (13 days of gestation); 3 days of culture; 5% CO2 at 37° C.
Protocol: A maxillary skin was removed from the fetus of the ICR pregnant mouse (Nippon Charles River, 13 days of gestation) under a stereoscopic microscope. The maxillary skin taken was placed on Nuclepore membrane filter (SN 110419) floated on a culture medium (DH medium, or 0.35 mg/ml polypeptide A-containing DH medium). Organ culture was performed in 5% CO2 at 37° C. to investigate the effect of polypeptide A on the morphogenesis of the hair follicle. […] This manner of inhibition of morphogenesis was exactly the same as in treatment with MC-1, i.e., antibodies inhibiting the function of epimorphin.

[3] = system: cell strain C3H/10T1/2clone8; test: Cell adhesion to coated dishes (O.D. at 260 nm of bound cells); settings: one hour; for cell adhesion compared with modified epimorphins: coated dishes, C3H/10T1/2clone8 cells; for O.D. at 260 nm (number of the cells bound to the dishes, indicator of cell adhesion): specimen coated on suspension culture dishes, C3H/10T1/2clone8 cells in DH medium with 20 mg/ml bovine serum albumin, control (untreated) 0.0194
Text: The polypeptides A, B and C of the present invention obtained in Example 1, and the modified epimorphins (fragment (123) and fragment (2), each having the same cell adhesion capacity as that of natural type epimorphin) were coated on suspension culture medium dishes. After drying, the dishes were washed once with 8M urea/lysis buffer. Then, the dishes were washed 5 times with PBS^−, and the cell strain C3H/10T1/2clone8 (Dainippon Pharmaceutical Co., Ltd., 08-226) was sprinkled on the dishes using D-MEM/F-12 culture medium (GIBCO BRL, 12400-024; hereinafter called “DH medium”) containing 20 mg/ml bovine serum albumin (SIGMA, A-7030). One hour later, the dishes were washed 3 times with PBS^−, and then the cells were collected using 0.5N NaOH. The O.D. at 260 nm was measured to determine the number of the cells bound to the dishes. The cell count was used as an indicator of the cell adhesion of each specimen. The O.D.'s found were 1.5237 for polypeptide A, 1.4251 for polypeptide B, 1.4697 for polypeptide C, 1.4959 for fragment (123), 1.4478 for fragment (2), and 0.0194 for control (untreated).

polypeptide A: 19 amino acids, 1st (N-terminal) to 19th of the functional domain (SEQ ID NO: 8) of natural type mouse epimorphin, chemically synthesized (NGNRTSVDLRIRRTQHSVL; listed as Mus musculus)
morphogenesis of the bronchus [1]: markedly inhibited | morphogenesis of hair follicles [2]: markedly inhibited | cell adhesion compared with modified epimorphins [3]: cell adhesion comparable to that of the modified epimorphins | O.D. at 260 nm (number of the cells bound to the dishes, indicator of cell adhesion) [3]: 1.5237

polypeptide C: 41 amino acids, 1st (N-terminal) to 41st of the functional domain (SEQ ID NO: 8) of natural type mouse epimorphin (NGNRTSVDLRIRRTQHSVLSRKFVDVMAEYNEAQILFRERS; listed as Mus musculus)
cell adhesion compared with modified epimorphins [3]: cell adhesion comparable to that of the modified epimorphins | O.D. at 260 nm (number of the cells bound to the dishes, indicator of cell adhesion) [3]: 1.4697

polypeptide B: 39 amino acids, 1st (N-terminal) to 39th of the functional domain (SEQ ID NO: 8) of natural type mouse epimorphin (NGNRTSVDLRIRRTQHSVLSRKFVDVMAEYNEAQILFRE; listed as Mus musculus)
cell adhesion compared with modified epimorphins [3]: cell adhesion comparable to that of the modified epimorphins | O.D. at 260 nm (number of the cells bound to the dishes, indicator of cell adhesion) [3]: 1.4251
